# Source: patent US11279735B2, “Cyclic peptide antibiotics” (priority 2017, dated 2022)
# *1 amine or outer side, *2 acyl side, *3 side chain or, on linkers, in order; H or OH if unused. Where a SMILES comes first, the peptide text is derived from it. [ ]: non-standard residue; d: D form. The star is where a group is joined. X17 = CCCCCC[C@@H](O[C@H](C)CN[*:1])[C@@H](C)C(=O)[*:2]; X2 = CCCCCC[C@@H](OC[C@@H](C)N[*:1])[C@@H](C)C(=O)[*:2]; Gly(cHept) = N[C@H](C(=O)O)C1CCCCCC1; aThr = C[C@H](O)[C@H](N)C(=O)O; NMeL = CN[C@@H](CC(C)C)C(=O)O; Chg = N[C@H](C(=O)O)C1CCCCC1; NMeNva = CCC[C@H](NC)C(=O)O; Dap = NC[C@H](N)C(=O)O; X10 = NCCCC*
# Tested on: Escherichia coli (E. coli) strain CFT073 ATCC 700928
# Format: cell-based
# Conditions: ATCC 700928, 22 h
# Method: In vitro antimicrobial activity of each compound was determined by measuring minimal inhibitor concentrations (MICs) using the broth micro-dilution technique as approved by the Clinical and Laboratory Standards Institute (CLSI) (Methods for Dilution Antimicrobial Susceptibility Tests for Bacteria that Grow Aerobically; Approved Standard—Eighth Edition. CLSI document M07-A8. Wayne, Pa.: Clinical and Laboratroy Standards; 2009). Antibacterial activity was measure against Escherichia coli (E. coli) strain CFT073 ATCC 700928, which is a clinically relevant Gram-negative strain. Cells were inoculated onto plates of Mueller Hinton Agar and grown at 37° C. for 16-18 hours. Inocula suspensions were prepared by scraping cells into 1 mL of testing media (Mueller Hinton II cation adjusted Broth supplemented with 0.002% v/v Tween-80) and diluting to a final OD600 nm of 0.01.
# Test compounds were prepared in DMSO at a concentration of 100 uM The compounds were tested under several different dilution formats and the data are reported in Tables 6, 7 and 8. In protocol 1, the compound stocks were diluted into testing media at a concentration of 64 μg/ml and serial 2-fold dilutions were made in the same media, in 96-well U bottom microtiter dishes, for a total of 10 compound concentrations. In protocol 2, the compound stocks were diluted into testing media at a concentration of 4 μg/mL and serial 2-fold dilutions were made in the same media, in 96-well U bottom microtiter dishes, for a total of 10 compound concentrations. In protocol 3, compound stocks were diluted into testing media at a concentration of 0.5 μg/mL, with serial 2-fold dilutions conducted as described above. In protocol 4, compound stocks were diluted into testing media at a concentration of 0.13 μg/mL, with serial 2-fold dilutions conducted as described above. Inocula suspensions were added to the 2-fold serial dilutions of test compounds to a final density of OD OD600 nm of 0.0005 and incubated at 35° C. for 22 hours.
row,MIC,SMILES
1,9.4 µM,"CCCCCC[C@H]1OC(=O)CNC(=O)[C@H]([C@H](C)O)NC(=O)[C@H](CN)NC(=O)[C@H]([C@H](C)CC)NC(=O)[C@H](CC(C)C)N(C)C(=O)[C@@H]1C [Example 34, (6S,9S,12S,15S,18R,19R)-9-(aminomethyl)-19-hexyl-6-[(1S)-1-hydroxyethyl]-15-isobutyl-16,18-dimethyl-12-[(1R)-1-methylpropyl]-1-oxa-4,7,10,13,16-pentazacyclononadecane-2,5,8,11,14,17-hexone]"
2,35 µM,"CCCCCC[C@H]1O[C@H](C)CNC(=O)[C@H]([C@H](C)O)NC(=O)[C@H](CN)NC(=O)[C@H](C2CCCCC2)NC(=O)[C@H](CC(C)C)N(C)C(=O)[C@@H]1C [Example 140, (2R,6S,9S,12S,15S,18R,19R)-9-(aminomethyl)-12-cyclohexyl-19-hexyl-15-isobutyl-2,16,18-trimethyl-6-[(1S)-1-hydroxyethyl]-1-oxa-4,7,10,13,16-pentazacyclononadecane-5,8,11,14,17-pentone] (cyclo([Chg][Dap][aThr][X17][NMeL]))"
3,0.78 µM,"CCC[C@H]1C(=O)N[C@@H](C2CCCCCC2)C(=O)N[C@@H](CN)C(=O)N[C@@H](COC2CC3(CC(N)C3)C2)C(=O)N[C@H](C)CO[C@H](CC2CC3(CCC3)C2)[C@@H](C)C(=O)N1C (single isomer, unassigned; stereoisomer 2) [Example 170]"
4,15 µM,"CC(C)C[C@H]1C(=O)N[C@@H](C2CCCCC2)C(=O)N[C@@H](CN)C(=O)N[C@@H]([C@H](C)O)C(=O)NCC(=O)O[C@H](CCCCCCC(C)(C)O)[C@@H](C)C(=O)N1C [Example 114, (6S,9S,12S,15S,18R,19R)-9-(aminomethyl)-12-cyclohexyl-19-(7-hydroxy-7-methyl-octyl)-15-isobutyl-16,18-dimethyl-6-[(1S)-1-hydroxyethyl]-1-oxa-4,7,10,13,16-pentazacyclononadecane-2,5,8,11,14,17-hexone]"
5,13 µM,"CCCCCCCCCC[C@H]1OC(=O)CNC(=O)[C@H](CO)NC(=O)[C@H](CO)NC(=O)[C@H]([C@@H](C)CC)NC(=O)[C@H](CCCC)N(C)C(=O)[C@@H]1C [Example 31, (6S,9S,12S,15S,18R,19R)-15-butyl-19-decyl-6,9-bis(hydroxymethyl)-16,18-dimethyl-12-[(1S)-1-methylpropyl]-1-oxa-4,7,10,13,16-pentazacyclononadecane-2,5,8,11,14,17-hexone]"
6,3.2 µM,"CCCCCC[C@H]1OC(=O)CNC(=O)[C@H]([C@H](C)O)NC(=O)[C@H]([C@H](C)N)NC(=O)[C@H](C2CCCCC2)NC(=O)[C@H](CC(C)C)N(C)C(=O)[C@@H]1C [Example 125, (6S,9S,12S,15S,18R,19R)-12-cyclohexyl-19-hexyl-15-isobutyl-16,18-dimethyl-9-[(1S)-1-aminoethyl]-6-[(1S)-1-hydroxyetltyl]-1-oxa-4,7,10,13,16-pentazacyclononadecane-2,5,8,11,14,17-hexone]"
7,12 µM,"CCCCCC[C@H]1OC(=O)CNC(=O)[C@H]([C@H](C)O)NC(=O)[C@H](CN)NC(=O)[C@H](C2CCCCC2)NC(=O)[C@H](CC(C)C)N(C)C(=O)[C@@H]1Cc1ccc(OC)cc1 [Example 123, (6S,9S,12S,15S,18R,19R)-9-(aminomethyl)-12-cyclohexyl-19-hexyl-6-[(1S)-1-hydroxyethyl]-15-isobutyl-18-[(4-methoxyphenyl)methyl]-16-methyl-1-oxa-4,7,10,13,16-pentazacyclononadecane-2,5,8,11,14,17-hexone]"
8,1.1 µM,"CCC[C@H]1C(=O)N[C@@H](C2CCCCCC2)C(=O)N[C@@H](CN)C(=O)N[C@@H](COC2CC3(CC(N)C3)C2)C(=O)N[C@H](C)CO[C@H](CC2CC3(CCC3)C2)[C@@H](C)C(=O)N1C (single isomer, unassigned; stereoisomer 1) [Example 166]"
9,4.7 µM,"CCCCCCCCCC[C@H]1OC(=O)CNC(=O)[C@H](CO)NC(=O)[C@H](CN)NC(=O)[C@H]([C@H](C)CC)NC(=O)[C@H](CC(C)C)N(C)C(=O)[C@@H]1C [Example 12, (6S,9S,12S,15S,18R,19R)-9-(aminomethyl)-19-decyl-6-(hydroxymethyl)-15-isobutyl-16,18-dimethyl-12-[(1R)-1-methylpropyl]-1-oxa-4,7,10,13,16-pentazacyclononadecane-2,5,8,11,14,17-hexone]"
10,25 µM,"CCCCCCCCCC[C@H]1OC(=O)CNC(=O)[C@H]([C@H](C)O)NC(=O)[C@H](CN)NC(=O)[C@H](C2CCCC2)NC(=O)[C@H](CC(C)C)N(C)C(=O)[C@@H]1C [Example 45, (6S,9S,12S,15S,18R,19R)-9-(aminomethyl)-12-cyclopentyl-19-decyl-6-[(1S)-1-hydroxyethyl]-15-isobutyl-16,18-dimethyl-1-oxa-4,7,10,13,16-pentazacyclononadecane-2,5,8,11,14,17-hexone]"
11,8.8 µM,"CCCCCC[C@H]1OC[C@@H](C)NC(=O)[C@H]([C@H](C)O)NC(=O)[C@H](CN)NC(=O)[C@H](C2CCN(c3ccccc3)CC2)NC(=O)[C@H](CC(C)C)N(C)C(=O)[C@@H]1C [Example 148, (3R,6S,9S,12S,15S,18R,19R)-9-(Aminomethyl)-19-hexyl-6-((S)-1-hydroxyethyl)-15-isobutyl-3,16,18-trimethyl-12-(1-phenylpiperidin-4-yl)-1-oxa-4,7,10,13,16-pentaazacyclononadecane-5,8,11,14,17-pentaone]"
12,25 µM,"CC[C@H](C)[C@@H]1NC(=O)[C@H](CC(C)C)N(C)C(=O)[C@H](C)[C@@H](CCCCC(C)(C)C)OC(=O)CNC(=O)[C@H]([C@H](C)O)NC(=O)[C@H](CO)NC1=O [Example 44, (6S,9S,12S,15S,18R,19R)-19-(5,5-dimethylhexyl)-6-[(1S)-1-hydroxyethyl]-9-(hydroxymethyl)-15-isobutyl-16,18-dimethyl-12-[(1S)-1-methylpropyl]-1-oxa-4,7,10,13,16-pentazacyclononadecane-2,5,8,11,14,17-hexone]"
13,25 µM,"CCCCCCCCCC[C@H]1OC(=O)CNC(=O)[C@H](CNC(N)=O)NC(=O)[C@H](CO)NC(=O)[C@H]([C@@H](C)CC)NC(=O)[C@H](CC(C)C)N(C)C(=O)[C@@H]1C [Example 37, [(6S,9S,12S,15S,18R,19R)-19-decyl-9-(hydroxymethyl)-15-isobutyl-16,18-dimethyl-12-[(1S)-1-methylpropyl]-2,5,8,11,14,17-hexaoxo-1-oxa-4,7,10,13,16-pentazacyclononadec-6-yl]methylurea]"
14,3.1 µM,"CCCCCCCCCC[C@H]1OC(=O)CNC(=O)[C@H]([C@H](C)O)NC(=O)[C@H](CN)NC(=O)[C@H]([C@H](C)CC)NC(=O)[C@H](CCC)N(C)C(=O)[C@@H]1C [Example 14, (6S,9S,12S,15S,18R,19R)-9-(aminomethyl)-19-decyl-6-[(1S)-1-hydroxyethyl]-16,18-dimethyl-12-[(1R)-1-methylpropyl]-15-propyl-1-oxa-4,7,10,13,16-pentazacyclononadecane-2,5,8,11,14,17-hexone]"
15,1.6 µM,"CCCCCC[C@H]1OC[C@@H](C)NC(=O)[C@H](COc2cccc(CN)c2)NC(=O)[C@H](CN)NC(=O)[C@H](C2CCCCC2)NC(=O)[C@H](CC(C)C)N(C)C(=O)[C@@H]1C [Example 167, (3R,6S,9S,12S,15S,18R,19R)-9-(Aminomethyl)-6-((3-(aminomethyl)phenoxy)methyl)-12-cyclohexyl-19-hexyl-15-isobutyl-3,16,18-trimethyl-1-oxa-4,7,10,13,16-pentaazacyclononadecane-5,8,11,14,17-pentaone]"
16,6.3 µM,"CCCCCC[C@H]1OC(=O)CNC(=O)[C@H]([C@H](C)O)NC(=O)[C@H](CN)NC(=O)[C@H](C2CCCCC2)NC(=O)[C@H](CC(C)C)N(C)C(=O)[C@@H]1Cc1ccc(C(F)(F)F)cc1 [Example 121, (6S,9S,12S,15S,18R,19R)-9-(aminomethyl)-12-cyclohexyl-19-hexyl-15-isobutyl-16-methyl-6-[(1S)-1-hydroxyethyl]-18-[[4-(trifluoromethyl)phenyl]methyl]-1-oxa-4,7,10,13,16-pentazacyclononadecane-2,5,8,11,14,17-hexone]"

row,SMILES,MIC
1,"CCCCCC[C@H]1OC[C@@H](C)NC(=O)[C@H](COCCCCN)NC(=O)[C@H](CN)NC(=O)[C@H](C2CCCCCC2)NC(=O)[C@H](CCC)N(C)C(=O)[C@@H]1C [Example 152, (3R,6S,9S,12S,15S,18R,19R)-6-((4-Aminobutoxy)methyl)-9-(aminomethyl)-12-cycloheptyl-19-hexyl-3,16,18-trimethyl-15-propyl-1-oxa-4,7,10,13,16-pentaazacyclononadecane-5,8,11,14,17-pentaone] (cyclo([Dap]S(X10)[X2][NMeNva][Gly(cHept)]))",6.3 µM
